Key:
BV2 microglia cell line = assay: WST-1 assay of PMA-induced ROS production; format: cell-based
Description: The WST-1 assay allows to measure the ROS produced by cell cultures.

[1] = cited from earlier work
human recombinant TSPO = biological target: T1, human recombinant TSPO (Homo sapiens, UniProt P30536); assay: Microscale thermophoresis (MST) binding to isolated TSPO; details: 5 nM red-tagged hTSPO
T1 construct: purchased LSBio
T1 sequence (P30536 whole entry): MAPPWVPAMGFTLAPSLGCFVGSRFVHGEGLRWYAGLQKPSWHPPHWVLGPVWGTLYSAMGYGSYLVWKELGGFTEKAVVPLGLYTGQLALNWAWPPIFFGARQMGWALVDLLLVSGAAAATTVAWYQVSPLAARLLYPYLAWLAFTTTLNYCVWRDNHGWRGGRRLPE
Description: The tests were performed by using isolated human recombinant TSPO (purchased from LSBio). The lyophilized protein was resuspended in Tris buffer and stored at −80° C. as per manufacturer instructions. Labelling with a deep-red fluorophore was performed by using the Monolith labeling kit-RED from Nanothemper. Briefly, 200 nM of hTSPO was resuspended in Tris/Sarkosyl 0.1% buffer and then mixed with a solution containing anti-His red-fluorophore at 100 nM concentration. After incubation for 30 minutes at RT, the mixture was centrifuged at 15000 g for 10 minutes at 4° C., to pellet any aggregate or precipitate. […] MST was then performed to assess binding.

c1ccc2c(c1)[I+]c1ccccc1-2 [DPI, diphenylene iodonium]
effect on PMA-induced ROS (BV2 microglia cell line; co-incubation with PMA): able to counteract the induction of ROS

COc1cc(C(C)=O)cc(-c2cc(C(C)=O)cc(OC)c2O)c1O [Diapocynin]
pKa [1]: 7.4
concentration inhibiting the PMA-induced increase of ROS (BV2 microglia cell line; PMA 50 ng/ml, nominal concentration for encapsulated drug): ≥ 50 µM

CCC(C)N(C)C(=O)c1cc2ccccc2c(-c2ccccc2Cl)n1 (stereo not drawn) [PK11195]
change in MST profile of tagged hTSPO (human recombinant TSPO; ligand 250 μM): significant change in the MST profile

CCCCCCCCCCCCCC(=O)O[C@@H]1[C@@H](C)[C@@]2(O)[C@@H](C=C(CO)C[C@]3(O)C(=O)C(C)=C[C@@H]23)[C@@H]2C(C)(C)[C@]12OC(C)=O [PMA, phorbol ester myristate acetate]
increase of ROS production as compared to untreated control (BV2 microglia cell line; 50 ng/ml for 6 hours): 30-40%

CN1C(=O)CN=C(c2ccc(Cl)cc2)c2cc(Cl)ccc21 [Ro5-4864]
change in MST profile of tagged hTSPO / binding (human recombinant TSPO; tested at 500 μM): significant change in the MST profile

— US12161663B2, “Compositions and methods for targeting cells” (Children's Medical Center Corporation, priority 2018, dated 2024)
